Patent US20240025919A1, “AZA-TETRACYCLIC OXAZEPINE COMPOUNDS AND USES THEREOF” (Genentech, Inc., priority 2022, published 2024)
Read-outs that look alike come from different tables or passages of the source.

Experiments:
KRAS WT = KRAS WT (Homo sapiens (Human), UniProt P01116); test: KRAS WT Biochemical Assay, BODIPY-GDP Exchange TR-FRET (Example 501; 3 nM KRAS WT, 3 nM SOS1, 60-minute incubation)
Description: Example 501: KRAS WT Biochemical Assay, BODIPY-GDP Exchange TR-FRET. Biochemical compound potencies are assessed by evaluating inhibition of SOS1-mediated nucleotide exchange in KRAS WT. In this assay, the SOS1-promoted exchange of fluorescently-labeled GDP (BOPIDY-GDP) is monitored by time-resolved fluorescence resonance energy transfer (TR-FRET). Compounds solubilized in DMSO are dispensed as concentration series into 384-well white assay plates, and 5 uL assay buffer (20 mM HEPES, pH 7.5, 50 mM NaCl, 10 mM MgCl2, 0.01% Tween-20 and 1 mM dithiothreitol) is added just prior to the start of the assay. A preformed complex of 3 nM biotin-tagged recombinant human KRAS WT and 0.3 nM terbium-labeled streptavidin (CisBIO) prepared in 5 uL/well assay buffer is added and allowed to incubate for 10-minutes at room temperature. The reaction is initiated with the addition of 5 uL 3 nM recombinant human SOS1 and 300 nM BODIPY-GDP in assay buffer. After a 60-minute incubation, the fluorescence is measured with excitation at 337 nm and emission at 490 and 520 nm. The TR-FRET ratio is determined as the fluorescence at 520 nm divided by the fluorescence at 490 nm multiplied by 10,000. The results are normalized to percent inhibition based on control samples: DMSO (0% inhibition) and control compound at a concentration that inhibits completely (100% inhibition). The normalized TR-FRET results are plotted against compound concentration, and the data are fit to a 4-parameter Hill equation to determine the IC50 values.

KRAS G12D = KRAS G12D (Homo sapiens (Human), UniProt P01116, G12D); test: KRAS G12D LoEnz Biochemical Assay, BODIPY-GDP Exchange TR-FRET (SOS1-mediated nucleotide exchange); settings: read-out: KRas (G12D) GDP HTRF IC50
KRAS G12D, sequence (P01116-2 other isoform, or with tags, fused parts or gaps G12D): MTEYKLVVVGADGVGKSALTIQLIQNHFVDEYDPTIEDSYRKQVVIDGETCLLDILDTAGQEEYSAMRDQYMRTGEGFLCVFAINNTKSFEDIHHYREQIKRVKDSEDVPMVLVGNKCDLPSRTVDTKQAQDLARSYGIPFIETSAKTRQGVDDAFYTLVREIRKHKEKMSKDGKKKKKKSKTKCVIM
Description: Example 500: KRAS G12D LoEnz Biochemical Assay, BODIPY-GDP Exchange TR-FRET. Biochemical compound potencies are assessed by evaluating inhibition of SOS1I-mediated nucleotide exchange in KRAS G121D. In this assay, the SOS1-promoted exchange of fluorescently-labeled GDP (BOPIDY-GDP) is monitored by time-resolved fluorescence resonance energy transfer (TR-FRET). Compounds solubilized in DMS0 are dispensed as concentration series into 384-well white assay plates. A preformed complex of biotin-tagged recombinant human KRAS (0.06 nM mutant G1 2D) and 0.06 nM terbium-labeled streptavidin (CisBIO) prepared in 10 uL/well assay buffer (20 mM HEPES, pH 7.5, 50 mM NaCl, 10 mMMMgCl2, 0.0100 Tween-20 and 1 mM dithiothreitol) is added and allowed to incubate for 10-minutes at room temperature. The reaction is initiated with the addition of 5 uL 300 nM recombinant human SOS1 and 300 nM BODIPY-GDP in assay buffer. After a 120-minute incubation, the fluorescence is measured with excitation at 337 nm and emission at 490 and 520 nm. The TR-FRET ratio is determined as the fluorescence at 520 nm divided by the fluorescence at 490 nm multiplied by 10,000. The results are normalized to percent inhibition based on control samples: DMSO (0% inhibition) and control compound at a concentration that inhibits completely (100% inhibition). The normalized TR-FRET results are plotted against compound concentration, and the data are fit to a 4-parameter Hill equation to determine the IC50 values.

[1] = read-out: KRas(wt) GDP HTRF IC50

KRAS WT, sequence (P01116-2 other isoform, or with tags, fused parts or gaps): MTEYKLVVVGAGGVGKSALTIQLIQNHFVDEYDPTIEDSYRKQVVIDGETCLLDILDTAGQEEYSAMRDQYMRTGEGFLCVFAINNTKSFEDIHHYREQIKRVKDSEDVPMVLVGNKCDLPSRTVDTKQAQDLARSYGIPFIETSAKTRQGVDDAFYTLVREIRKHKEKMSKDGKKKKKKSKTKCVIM

Structure (SMILES) | IC50 (KRAS WT; [1]) [nM] | IC50 (KRAS G12D) [nM] | IC50 (KRAS WT; read-out: KRas HTRF IC50) [nM]
C[C@@H]1Oc2nc(-c3cncc4ccccc34)c(F)c3nc(OC[C@@]45CCCN4CC4(CC4(F)F)C5)nc(c23)N2C[C@H]3CC[C@H](N3)[C@@H]12 (stereo partly drawn) [Compound 30, (5S,5aS,6S,9R)-12-(((7a′S)-2,2-difluorodihydro-1′H,3′H-spiro[cyclopropane-1,2′-pyrrolizin]-7a′(5′H)-yl)methoxy)-1-fluoro-2-(isoquinolin-4-yl)-5-methyl-5a,6,7,8,9,10-hexahydro-5H-4-oxa-3,10a,11,13,14-pentaaza-6,9-methanonaphtho[1,8-ab]heptalene] | 598 | 19.4 | –
Cc1c(F)c(N)cc(-c2nc3c4c(nc(OC[C@@]56CCCN5C[C@H](OCc5ccc(-c7ccccc7C#N)cc5)C6)nc4c2F)N2C[C@H]4CC[C@H](N4)[C@H]2[C@H](C)O3)c1C(F)(F)F [Compound 32, 4′-((((2R,7aS)-7a-((((5S,5aS,6S,9R)-2-(5-amino-4-fluoro-3-methyl-2-(trifluoromethyl)phenyl)-1-fluoro-5-methyl-5a,6,7,8,9,10-hexahydro-5H-4-oxa-3,10a,11,13,14-pentaaza-6,9-methanonaphtho[1,8-ab]heptalen-12-yl)oxy)methyl)hexahydro-1H-pyrrolizin-2-yl)oxy)methyl)-[1,1′-biphenyl]-2-carbonitrile] | 0.579 | 0.2 | –
C[C@@H]1Oc2nc(-c3c(C(F)(F)F)ccc(N)c3F)c(F)c3nc(OC[C@@]45CCCN4C[C@H](F)C5)nc(c23)N2C[C@H]3CC[C@H](N3)[C@@H]12 [Compound 35, 2-fluoro-3-((5S,5aS,6S,9R)-1-fluoro-12-(((2R,7aS)-2-fluorotetrahydro-1H-pyrrolizin-7a(5H)-yl)methoxy)-5-methyl-5a,6,7,8,9,10-hexahydro-5H-4-oxa-3,10a,11,13,14-pentaaza-6,9-methanonaphtho[1,8-ab]heptalen-2-yl)-4-(trifluoromethyl)aniline] | 15.8 | 0.57 | –
Cc1cc(N)c(F)c(-c2nc3c4c(nc(OC[C@@]56CCCN5C[C@H](F)C6)nc4c2F)N2C[C@H]4CC[C@H](N4)[C@H]2CO3)c1C(F)(F)F [Compound 36, 2-fluoro-3-((5aS,6S,9R)-1-fluoro-12-(((2R,7aS)-2-fluorotetrahydro-1H-pyrrolizin-7a(5H)-yl)methoxy)-5a,6,7,8,9,10-hexahydro-5H-4-oxa-3,10a,11,13,14-pentaaza-6,9-methanonaphtho[1,8-ab]heptalen-2-yl)-5-methyl-4-(trifluoromethyl)aniline] | 46.5 | 0.98 | –
C[C@@H]1Oc2nc(-c3cncc4cccc(Cl)c34)c(F)c3nc(OC[C@@]45CCCN4C[C@H](F)C5)nc(c23)N2C[C@H]3CC[C@H](N3)[C@@H]12 [Compound 38, (5S,5aS,6S,9R)-2-(5-Chloroisoquinolin-4-yl)-1-fluoro-12-(((2R,7aS)-2-fluorotetrahydro-1H-pyrrolizin-7a(5H)-yl)methoxy)-5-methyl-5a,6,7,8,9,10-hexahydro-5H-4-oxa-3,10a,11,13,14-pentaaza-6,9-methanonaphtho[1,8-ab]heptalene] | 697 | 13.9 | –
C#Cc1cccc2cncc(-c3nc4c5c(nc(OC[C@@]67CCCN6CC6(CC6(F)F)C7)nc5c3F)N3C[C@H]5CC[C@H](N5)[C@H]3[C@H](C)O4)c12 (stereo partly drawn) [Compound 40, (5S,5aS,6S,9R)-12-(((7a′S)-2,2-difluorodihydro-1′H,3′H-spiro[cyclopropane-1,2′-pyrrolizin]-7a′(5′H)-yl)methoxy)-2-(5-ethynylisoquinolin-4-yl)-1-fluoro-5-methyl-5a,6,7,8,9,10-hexahydro-5H-4-oxa-3,10a,11,13,14-pentaaza-6,9-methanonaphtho[1,8-ab]heptalene] | 86.8 | 1.3 | –
Cc1cc(N)nc(-c2nc3c4c(nc(OC[C@@]56CCCN5CC5(CC5(F)F)C6)nc4c2F)N2C[C@H]4CC[C@H](N4)[C@H]2CO3)c1C(F)(F)F (stereo partly drawn) [Compound 42, 6-((5aS,6S,9R)-12-(((7a'S)-2,2-difluorodihydro-1′H,3′H-spiro[cyclopropane-1,2′-pyrrolizin]-7a′(5′H)-yl)methoxy)-1-fluoro-5a,6,7,8,9,10-hexahydro-5H-4-oxa-3,10a,11,13,14-pentaaza[6,9]methanonaphtho[1,8-ab]heptalen-2-yl)-4-methyl-5-(trifluoromethyl)pyridin-2-amine] | 45.2 | 0.47 | –
Cc1cc(N)nc(-c2nc3c4c(nc(OC[C@@]56CCCN5CC5(CC5(F)F)C6)nc4c2F)N2C[C@H]4CC[C@H](N4)[C@H]2[C@H](C)O3)c1C(F)(F)F (stereo partly drawn) [Compound 47, 6-((5S,5aS,6S,9R)-12-(((7a′S)-2,2-difluorodihydro-1′H,3′H-spiro[cyclopropane-1,2′-pyrrolizin]-7a′(5′H)-yl)methoxy)-1-fluoro-5-methyl-5a,6,7,8,9,10-hexahydro-5H-4-oxa-3,10a,11,13,14-pentaaza[6,9]methanonaphtho[1,8-ab]heptalen-2-yl)-4-methyl-5-(trifluoromethyl)pyridin-2-amine] | 4.43 | 0.443 | –
C#Cc1cccc2cc(O)cc(-c3nc4c5c(nc(OC[C@@]67CCCN6C[C@H](F)C7)nc5c3F)N3C[C@H]5CC[C@H](CN5CCCF)[C@H]3CO4)c12 [Compound 50, 5-Ethynyl-4-((5aS,6R,9R)-1-fluoro-14-(3-fluoropropyl)-12-(((2R,7aS)-2-fluorotetrahydro-1H-pyrrolizin-7a(5H)-yl)methoxy)-5a,6,7,8,9,10-hexahydro-5H-4-oxa-3,10a,11,13,14-pentaaza-6,9-ethanonaphtho[1,8-ab]heptalen-2-yl)naphthalen-2-ol] | 1.69 | 0.24 | –
C#Cc1cccc2cc(O)cc(-c3nc4c5c(nc(OC[C@@]67CCCN6C[C@H](F)C7)nc5c3F)N3C[C@H]5CC[C@H](CN5CC5COC5)[C@H]3CO4)c12 [Compound 51, 5-ethynyl-4-((5aS,6R,9R)-1-fluoro-12-(((2R,7aS)-2-fluorotetrahydro-1H-pyrrolizin-7a(5H)-yl)methoxy)-14-(oxetan-3-ylmethyl)-5a,6,7,8,9,10-hexahydro-5H-4-oxa-3,10a,11,13,14-pentaaza-6,9-ethanonaphtho[1,8-ab]heptalen-2-yl)naphthalen-2-ol] | 5.6 | 0.3 | –
Cc1cc(N)nc(-c2nc3c4c(ncnc4c2F)N2C[C@H]4CC[C@H](N4)[C@H]2CO3)c1C(F)(F)F [Compound 52, 6-((5aS,6S,9R)-1-Fluoro-5a,6,7,8,9,10-hexahydro-5H-4-oxa-3,10a,11,13,14-pentaaza-6,9-methanonaphtho[1,8-ab]heptalen-2-yl)-4-methyl-5-(trifluoromethyl)pyridin-2-amine] | 194000 | 2140 | –
Fc1c(-c2cccc3cccc(Cl)c23)nc2c3c(ncnc13)N1C[C@H]3CC[C@H](N3)[C@H]1CO2 [Compound 53, (5aS,6S,9R)-2-(8-Chloronaphthalen-1-yl)-1-fluoro-5a,6,7,8,9,10-hexahydro-5H-4-oxa-3,10a,11,13,14-pentaaza-6,9-methanonaphtho[1,8-ab]heptalene] | 200000 | 22200 | –
Cc1cc(N)c(F)c(-c2nc3c4c(nc(OC[C@@]56CCCN5C[C@H](F)C6)nc4c2F)N2C[C@H]4CC[C@H](N4)[C@H]2[C@H](C)O3)c1CC(F)(F)F [Compound 182, 2-Fluoro-3-((5S,5aS,6S,9R)-1-fluoro-12-(((2R,7aS)-2-fluorotetrahydro-1H-pyrrolizin-7°(5H)-yl)methoxy)-5-methyl-5°,6,7,8,9,10-hexahydro-5H-4-oxa-3,10°,11,13,14-pentaaza-6,9-methanonaphtho[1,8-ab]heptalen-2-yl)-5-methyl-4-(2,2,2-trifluoroethyl)aniline] | – | 0.269 | 33.9
